Tested on: MCF-7
Assay: AlamarBlue cell viability assay, MCF7
Format: cell-based, human
Details: Homo sapiens, MCF7, MCF-7, AlamarBlue cell viability (Table 8)
Source text: (A) Inhibitory concentration 50% (IC50) values for compound 43 in the MC cell lines are tabulated, using an AlamarBlue™ cell viability assay as previously described in Pandey V et al., Breast Cancer Res. 2014; 16(5):429. (B) Measured dose-dependent manner effect of compound 43 on the viability of MC cells (left-side, TFF3-high and right, TFF3-low) using AlamarBlue™ viability assay as previously described (ibid). (C) Apoptotic cell death of mammary carcinoma cell lines measured after treatment with 10 μM compound 43 using flow cytometry analysis at 24 hour as described previously in Keerthy H K et al., PloS one. 2014; 9(9):e107118. Annexin V-FITC staining is indicated on the X-axis and PI staining on the Y-axis. […] Acquisition of Annexin V and PI data were represented as percentage (%) in each quadrant. Note: CM, conditioned media; MCF10A and MCF12A, non-transformed immortalized-mammary epithelial cell line. Points are mean of triplicate experiments; bars, ±SD. Statistical significance was assessed by using an unpaired two-tailed Student's t test (P<0.05 was considered as significant) using GraphPad Prism5. Columns are mean of triplicate experiments; bars, ±SD. **P<0.001, *P<0.05.
The human immortalized mammary epithelial cell lines, MCF10A, and MCF12A; and immortalized hepatocellular epithelial cell line, LO2 were obtained from the American Type Culture Collection (ATCC, Rockville, Md.) and were cultured as per ATCC propagation instructions. MC cell lines, MCF7, T47D, BT474, BT20, MDA-MB-361, MDA-MB-436, MDA-MB-468, and MDA-MB-231; endometrial carcinoma cell lines, Ishikawa, ECC1, RL95-2 and AN3; hepatocellular carcinoma cell lines, Hep3B, H2P, and H2M; colon carcinoma cell lines, DLD-1, and Caco-2; and prostate carcinoma cell lines, PC3, LNCaP, and DU145 were obtained from the American Type Culture Collection (ATCC, Rockville, Md.). Pancreatic carcinoma cell lines, AsPC-1 and BxPC-3; Lung carcinoma cell lines, HCC-827, NCI-H1975, HCC-4006, PC-14, and NCI-H1299; and Thyroid carcinoma cell lines HTH83, CAL62, T238, and OGK-M were obtained from Prof. H. Phillip Koeffler's laboratory at The Cancer Science Institute of Singapore, National University of Singapore (NUS). Gastric carcinoma cell lines, AGS, MKN-28, MKN-45, and A2-528 were obtained from Prof. Yoshiaki Ito's laboratory at The Cancer Science Institute of Singapore, NUS. All cell lines were cultured as per ATCC propagation instructions.
The above synthesised compounds were initially evaluated against a range of carcinoma cells using an AlamarBlue™ cell viability assay (using the protocol discussed above). The tested compounds were generally efficacious at reducing the viability of various carcinoma cells compared to vehicle (DMSO) treated cells. Table 8 provides selected IC50 data for certain of the compounds synthesised herein against MCF-7.
In table 9 IC50 values of compound 43 compound library in several cancer cell lines are tabulated, using an AlamarBlue® cell viability assay as previously described in Pandey V et al., Breast Cancer Res. 2014; 16(5):429. Statistical analysis was assessed by using GraphPad Prism5. Note: NV, no value.

SMILES | IC50 [µM]
N#CC1=C(N)Oc2c(c(=O)oc3ccccc23)C1c1ccc(-c2ccccc2)cc1 (stereo not drawn) [Compound 1] | 22.6
COc1cccc(-c2ccc(C3C(C#N)=C(N)Oc4c3c(=O)oc3ccccc43)cc2)c1 (stereo not drawn) [Compound 13] | 17.8
N#CC1=C(N)Oc2c(c(=O)oc3ccccc23)C1c1ccc(-c2ccc(Cl)c(C(F)(F)F)c2)cc1 (stereo not drawn) [Compound 25] | 18.4
N#CC1=C(N)Oc2c(c(=O)oc3ccccc23)C1c1ccc(-c2cccnc2)cc1 (stereo not drawn) [Compound 31] | 5.21
COc1ccc(C2C(C#N)=C(N)Oc3c2c(=O)oc2ccccc32)cc1-c1ccccc1 (stereo not drawn) [Compound 49] | 28.2
COc1ccc(C2C(C#N)=C(N)Oc3c2c(=O)oc2ccccc32)cc1-c1ccccc1C (stereo not drawn) [Compound 55] | 18.6
COc1cccc(-c2cc(C3C(C#N)=C(N)Oc4c3c(=O)oc3ccccc43)ccc2OC)c1 (stereo not drawn) [Compound 61] | 8.94
COc1ccc(C2C(C#N)=C(N)Oc3c2c(=O)oc2ccccc32)cc1-c1ccc(Cl)c(C(F)(F)F)c1 (stereo not drawn) [Compound 73] | 14.8
COc1ccc(C2C(C#N)=C(N)Oc3c2c(=O)oc2ccccc32)cc1-c1cccnc1 (stereo not drawn) [Compound 79] | 9.15
COc1ccc(C2C(C#N)=C(N)Oc3c2c(=O)oc2ccccc32)cc1-c1cnc(F)c(C)c1 (stereo not drawn) [Compound 91] | 11.8
Cc1cc(-c2ccc(C3C(C#N)=C(NC(=O)Cc4cccc(Cl)c4)Oc4c3c(=O)oc3ccccc43)cc2)cnc1F (stereo not drawn) [Compound 98] | 58.3
COc1ccc(CC(=O)NC2=C(C#N)C(c3ccc(-c4cnc(F)c(C)c4)cc3)c3c(c4ccccc4oc3=O)O2)cc1OC (stereo not drawn) [Compound 99] | 33.4
Cc1cc(-c2ccc(C3C(C#N)=C(NC(=O)c4cc(Cl)ccc4Cl)Oc4c3c(=O)oc3ccccc43)cc2)cnc1F (stereo not drawn) [Compound 100] | 177
Cc1cc(-c2ccc(C3C(C#N)=C(NC(=O)c4cccn4C)Oc4c3c(=O)oc3ccccc43)cc2)cnc1F (stereo not drawn) [Compound 101] | 40.4
COc1ccc(C2C(C#N)=C(NC(=O)c3ccc(C(F)(F)F)cc3)Oc3c2c(=O)oc2ccccc32)cc1-c1cnc(F)c(C)c1 (stereo not drawn) [Compound 102] | 33
COc1ccc(C2C(C#N)=C(NC(=O)Cc3cccc(Cl)c3)Oc3c2c(=O)oc2ccccc32)cc1-c1cnc(F)c(C)c1 (stereo not drawn) [Compound 103] | 40
COc1ccc(CC(=O)NC2=C(C#N)C(c3ccc(OC)c(-c4cnc(F)c(C)c4)c3)c3c(c4ccccc4oc3=O)O2)cc1OC (stereo not drawn) [Compound 104] | 8.96
COc1ccc(C2C(C#N)=C(NC(=O)c3cc(Cl)ccc3Cl)Oc3c2c(=O)oc2ccccc32)cc1-c1cnc(F)c(C)c1 (stereo not drawn) [Compound 105] | 23.7
COc1ccc(C2C(C#N)=C(NC(=O)c3cccn3C)Oc3c2c(=O)oc2ccccc32)cc1-c1cnc(F)c(C)c1 (stereo not drawn) [Compound 106] | 55

SMILES | IC50 [µM]
Cc1cc(-c2ccc(C3C(C#N)=C(NS(=O)(=O)c4ccccc4)Oc4c3c(=O)oc3ccccc43)cc2)cnc1F (stereo not drawn) [Compound 107] | 19.5
Cc1cc(-c2ccc(C3C(C#N)=C(NS(=O)(=O)c4ccc([N+](=O)[O-])cc4)Oc4c3c(=O)oc3ccccc43)cc2)cnc1F (stereo not drawn) [Compound 109] | 34.9
COc1ccc(C2C(C#N)=C(NS(=O)(=O)c3ccccc3)Oc3c2c(=O)oc2ccccc32)cc1-c1cnc(F)c(C)c1 (stereo not drawn) [Compound 110] | 67.4
COc1ccc(S(=O)(=O)NC2=C(C#N)C(c3ccc(OC)c(-c4cnc(F)c(C)c4)c3)c3c(c4ccccc4oc3=O)O2)cc1 (stereo not drawn) [Compound 111] | 39.3
COc1ccc(C2C(C#N)=C(NS(=O)(=O)c3ccc([N+](=O)[O-])cc3)Oc3c2c(=O)oc2ccccc32)cc1-c1cnc(F)c(C)c1 (stereo not drawn) [Compound 112] | 101
Cc1cc(-c2ccc(C3C(c4nnn[nH]4)=C(N)Oc4c3c(=O)oc3ccccc43)cc2)cnc1F (stereo not drawn) [Compound 113] | 33.1
COc1ccc(C2C(c3nnn[nH]3)=C(N)Oc3c2c(=O)oc2ccccc32)cc1-c1cnc(F)c(C)c1 (stereo not drawn) [Compound 114] | 39.8
N#CC1=C(N)Oc2c(c(=O)oc3ccccc23)C1c1ccc(-c2ccncc2)cc1 (stereo not drawn) [Compound 121] | 15.8
Cc1cc(-c2ccc(C3C(C#N)=C(N)Oc4c3c(=O)oc3ccccc43)cc2)cnc1Cl (stereo not drawn) [Compound 122] | 73.9
N#CC1=C(N)Oc2c(c(=O)oc3ccccc23)C1c1ccc(-c2ccc(C(F)(F)F)cc2)cc1 (stereo not drawn) [Compound 123] | 2.54
Cc1ccc(-c2ccc(C3C(C#N)=C(N)Oc4c3c(=O)oc3ccccc43)cc2)cn1 (stereo not drawn) [Compound 124] | 43.8
N#CC1=C(N)Oc2c(c(=O)oc3ccccc23)C1c1ccc(-c2cccc3ccccc23)cc1 (stereo not drawn) [Compound 125] | 8.23
N#CC1=C(N)Oc2c(c(=O)oc3ccccc23)C1c1ccc(-c2ccc(Cl)cc2)cc1 (stereo not drawn) [Compound 127] | 3.25
N#CC1=C(N)Oc2c(c(=O)oc3ccccc23)C1c1ccc(-c2cncnc2)cc1 (stereo not drawn) [Compound 128] | 200
N#CC1=C(N)Oc2c(c(=O)oc3ccccc23)C1c1ccc(-c2cn[nH]c2)cc1 (stereo not drawn) [Compound 129] | 263
Cc1c(-c2ccc(C3C(C#N)=C(N)Oc4c3c(=O)oc3ccccc43)c(F)c2)ccnc1F (stereo not drawn) [Compound 130] | 7.93
N#CC1=C(N)Oc2c(c(=O)oc3ccccc23)C1c1ccc(-c2ccncc2)cc1F (stereo not drawn) [Compound 131] | 2.89
Cc1cc(-c2ccc(C3C(C#N)=C(N)Oc4c3c(=O)oc3ccccc43)c(F)c2)cnc1Cl (stereo not drawn) [Compound 132] | 1.21
N#CC1=C(N)Oc2c(c(=O)oc3ccccc23)C1c1ccc(-c2cccnc2)cc1F (stereo not drawn) [Compound 133] | 3.26

SMILES | IC50 [µM]
N#CC1=C(N)Oc2c(c(=O)oc3ccccc23)C1c1ccc(-c2ccc(C(F)(F)F)cc2)cc1F (stereo not drawn) [Compound 134] | 1.84
Cc1ccc(-c2ccc(C3C(C#N)=C(N)Oc4c3c(=O)oc3ccccc43)c(F)c2)cn1 (stereo not drawn) [Compound 135] | 3.26
N#CC1=C(N)Oc2c(c(=O)oc3ccccc23)C1c1ccc(-c2ccc(C=O)o2)cc1F (stereo not drawn) [Compound 136] | 1.67
N#CC1=C(N)Oc2c(c(=O)oc3ccccc23)C1c1ccc(-c2ccc(Cl)cc2)cc1F (stereo not drawn) [Compound 137] | 3.95
Cc1ccccc1-c1ccc(C2C(C#N)=C(N)Oc3c2c(=O)oc2ccccc32)c(F)c1 (stereo not drawn) [Compound 138] | 0.751
N#CC1=C(N)Oc2c(c(=O)oc3ccccc23)C1c1ccc(-c2cncnc2)cc1F (stereo not drawn) [Compound 139] | 4.23
COc1cccc(-c2ccc(C3C(C#N)=C(N)Oc4c3c(=O)oc3ccccc43)c(F)c2)c1 (stereo not drawn) [Compound 140] | 1.07
N#CC1=C(N)Oc2c(c(=O)oc3ccccc23)C1c1ccc(-c2cccc3ccccc23)cc1F (stereo not drawn) [Compound 141] | 1.7
N#CC1=C(N)Oc2c(c(=O)oc3ccccc23)C1c1ccc(-c2cn[nH]c2)cc1F (stereo not drawn) [Compound 142] | 15.5
COc1ccc2c3c(c(=O)oc2c1)C(c1ccc(-c2cccnc2)cc1)C(C#N)=C(N)O3 (stereo not drawn) [Compound 143] | 0.685
N#CC1=C(N)Oc2c(c(=O)oc3ccc(F)cc23)C1c1ccc(-c2cccnc2)cc1 (stereo not drawn) [Compound 144] | 6.85
N#CC1=C(N)Oc2c(c(=O)oc3ccc(F)cc23)C1c1ccc(-c2ccncc2)cc1 (stereo not drawn) [Compound 145] | 2.81
COc1ccc2c3c(c(=O)oc2c1)C(c1ccc(-c2ccncc2)cc1)C(C#N)=C(N)O3 (stereo not drawn) [Compound 146] | 7.04
Cc1cc(-c2ccc(C3C(C#N)=C(N)Oc4c3c(=O)oc3ccc(F)cc43)cc2)cnc1Cl (stereo not drawn) [Compound 147] | 0.526
COc1ccc2c3c(c(=O)oc2c1)C(c1ccc(-c2cnc(Cl)c(C)c2)cc1)C(C#N)=C(N)O3 (stereo not drawn) [Compound 148] | 7.38
Cc1c(-c2ccc(C3C(C#N)=C(N)Oc4c3c(=O)oc3ccc(F)cc43)cc2)ccnc1F (stereo not drawn) [Compound 149] | 43.3
COc1ccc2c3c(c(=O)oc2c1)C(c1ccc(-c2ccnc(F)c2C)cc1)C(C#N)=C(N)O3 (stereo not drawn) [Compound 150] | 1.12
COc1ccc2c3c(c(=O)oc2c1)C(c1ccc(-c2ccc(C(F)(F)F)cc2)cc1)C(C#N)=C(N)O3 (stereo not drawn) [Compound 151] | 2.45
Cc1ccc(-c2ccc(C3C(C#N)=C(N)Oc4c3c(=O)oc3ccc(F)cc43)cc2)cn1 (stereo not drawn) [Compound 152] | 77.6
